Columns and labels:
[1] = tested on: a range of microorganisms in the biofilm state
bacterial biofilms = test: MBEC (Minimum Biofilm Eradication Concentration) assay using the Calgary Biofilm Device; assay type: cell-based; details: for MBEC for the metal ion, Without DDAC: metal ion solution alone, adjusted to approx. pH 5.5; for MBEC for the metal ion, Without DDAC / MBEC for the metal ion, With 0.1% DDAC: lowest concentration at which activity was observed, values approximate; for MBEC for the metal ion, With 0.1% DDAC: metal ion solution in combination with 0.1% DDAC, approx. pH 5.5; for Synergy: metal ion with 0.1% DDAC versus metal ion without DDAC

Molecule | EDTA concentration effective in making biofilm microorganisms vulnerable to antimicrobial agents [1] | Effect of EDTA on the synergistic antimicrobial activity of cationic surfactant and metal ion (bacterial biofilms; […] w/w di-sodium EDTA in each test solution) | MBEC for the metal ion, Without DDAC (bacterial biofilms) [ppm] | MBEC for the metal ion, With 0.1% DDAC (bacterial biofilms) | Synergy (bacterial biofilms) | Effectiveness against biofilms in the MBEC model (bacterial biofilms; 0.01% w/w silver, 0.1M acetate buffer, pH 4.7 to 7.7, no surfactant)
O=C(O)CN(CCN(CC(=O)O)CC(=O)O)CC(=O)O [EDTA, ethylenediaminetetra-acetic acid] | 0.25-0.5 % weight by volume | further enhances the synergistic antimicrobial activity | – | – | – | –
O=[N+]([O-])[O-].O=[N+]([O-])[O-].O=[N+]([O-])[O-].[Ga+3] [Gallium, gallium (III) nitrate] | – | – | >1000 | ≦0.24 ppm | +ve | –
O.O.O.O.O.O.O.O=S(=O)([O-])[O-].[Fe+2] [Iron (II), iron (II) sulphate heptahydrate] | – | – | >1000 | ≦0.24 ppm | +ve | –
O.O.O.O.[Cl][Mn][Cl] [Manganese, manganese (II) chloride tetrahydrate] | – | – | >1000 | ≦0.24 ppm | +ve | –
O=[N+]([O-])[O-].[Ag+] [Silver, silver nitrate] | – | – | 12.5 | 0.097 ppm | +ve | None of the 0.01% silver solutions pH buffered in the range 4.7 to 7.7 were effective against biofilms
copper (II) nitrate trihydrate | – | – | 15.6 | 1.95 ppm | +ve | –
iron (III) sulphate hydrate | – | – | >1000 | ≦0.24 ppm | +ve | –
zinc sulphate heptahydrate | – | – | >1000 | ≦125 ppm | +ve | –

From patent US9675077B2, “Composition comprising antimicrobial metal ions and a quaternary cationic surfactant” (CONVATEC TECHNOLOGIES INC., priority 2011, dated 2017)
